Laboratory results reported in patent US8314098B2, “Pyrazolo-pyrimidine compounds” (Ajinomoto Co., Inc., priority 2008, dated 2012).

How the values were obtained:
[1] = tested on: IL-12p70 (the complex of IL-12p35 and p40); experiment: IL-12p70 production inhibition in macrophages derived from mouse abdomen (IFN-γ/SAC stimulation, ELISA); type: cell-based; conditions: Macrophage; mouse (Balb/c) abdominal macrophages, 100 ng/mL mouse IFN-γ + 0.05% SAC, overnight; TFA salts tested where prepared as such; read-out: IL-12p70-Inhibitory Activity IC50
Method: (§1) One milliliter each of a 3% (w/v) thioglycolate solution was intraperitoneally administered to mice (female Balb/c mice), the abdominal cells of each mouse were recovered after 5 or 6 days from the administration of the thioglycolate solution and the adhesive cells were collected and used in the exaluation procedures. To a culture medium containing such adhesive cells, there were added 100 ng/mL of mouse interferon-γ and a 0.05% (v/v) liquid containing killed cells derived from Staphylococcus aureus Cowan I strain (SAC) and a candidate compound and then the mixture was cultivated overnight. After the completion of the cultivation, the survival ratios were determined, there were quantitatively determined the quantities of IL-12p70 (the complex of IL-12p35 and p40) and IL-12p40 or TNF-α according to the ELISA assays while making use of the recovered supernatant of the culture medium and the 50% production-inhibitory concentration (IC50) was calculated for each case (see Table 1 and Tables 1-9 for IL-12p70 and TNF-α and Tables 1 to 10 for IL-12p40).

TNF-α = TNF-α production inhibition in macrophages derived from mouse abdomen (IFN-γ/SAC stimulation, ELISA); type: cell-based; conditions: Macrophage; mouse (Balb/c) abdominal macrophages, 100 ng/mL mouse IFN-γ + 0.05% SAC, overnight; TFA salts tested where prepared as such; read-out: TNF-α-Inhibitory Activity IC50
Method: as §1

Row | Compound | IC50 [1] [nM] | IC50 (TNF-α) [nM]
1 | C(=N\Nc1cc(N2CCOCC2)n2nc(-c3ccccn3)cc2n1)/c1c[nH]c2ccccc12 [Compound 36, N-(1H-indol-3-yl-methylidene)-N′-(7-morpholin-4-yl-2-pyridin-2-yl-pyrazolo[1,5-a]pyrimidin-5-yl)-hydrazine] | 7 | > 10000
2 | Cc1cccc(/C=N/Nc2cc(N3CCOCC3)n3nc(C)cc3n2)c1 [Compound 79, N-(3-methyl-benzylidene)-N′-(2-methyl-7-morpholin-4-yl-pyrazolo[1,5-a]pyrimidin-5-yl)-hydrazine] | 220 | > 10000
3 | Cc1ccc(-c2nn3c(N4CCOCC4)cc(N/N=C/c4cccc(C)c4)nc3c2Br)cc1 [Compound 5, N-{3-bromo-2-(4-methylphenyl)-7-morpholin-4-yl-pyrazolo-[1,5-a]pyrimidin-5-yl}-N′-(3-methyl-benzylidene)-hydrazine] | 124 | > 10000
4 | C(=N\Nc1cc(N2CCOCC2)n2nc(-c3ccccc3)cc2n1)/c1c[nH]c2ccccc12 [Compound 2, N-(1H-indol-3-yl-methylidene)-N′-(7-morpholin-4-yl-2-phenyl-pyrazolo[1,5-a]pyrimidin-5-yl)-hydrazine] | 33 | > 10000
5 | Cc1cccc(/C=N/Nc2cc(N3CCOCC3)n3ncc(-c4ccccc4)c3n2)c1 [Compound 6, N-(3-methyl-benzylidene)-N′-(7-morpholin-4-yl-3-phenyl-pyrazolo[1,5-a]pyrimidin-5-yl)-hydrazine] | 642 | > 10000
6 | C(=N\Nc1cc(N2CCOCC2)n2nc(-c3ccccc3)cc2n1)/c1cccnc1 [Compound 8, N-(7-morpholin-4-yl-2-phenyl-pyrazolo[1,5-a]pyrimidin-5-yl)-N′-pyridin-3-yl-methylidene-hydrazine] | 407 | > 10000
7 | Cc1cccc(/C=N/Nc2cc(N3CCOCC3)n3nc(-c4ccc(N5CCN(C(=O)OC(C)(C)C)CC5)cc4)cc3n2)c1 [Compound 19, N-[2-{4-(4-t-butoxycarbonyl-piperazin-1-yl)-phenyl}-7-morpholin-4-yl-pyrazolo[1,5-a]pyrimidin-5-yl]-N′-(3-methyl-benzylidene)-hydrazine] | 60 | > 10000
8 | Cc1cccc(/C=N/Nc2cc(N3CCOCC3)n3ncc(Br)c3n2)c1 [Compound 11, N-(3-bromo-7-morpholin-4-yl-pyrazolo[1,5-a]pyrimidin-5-yl)-N′-(3-methyl-benzylidene)-hydrazine] | 340 | > 10000
9 | Cc1cccc(CNNc2cc(N3CCOCC3)n3nc(-c4ccccc4)cc3n2)c1 [Compound 34, N-(3-methyl-benzyl)-N′-(7-morpholin-4-yl-2-phenyl-pyrazolo[1,5-a]pyrimidin-5-yl)-hydrazine] | 24 | > 10000
10 | CCOC(=O)c1cc2nc(N/N=C/c3cccc(C)c3)cc(N3CCOCC3)n2n1 [Compound 81, N-(2-ethoxycarbonyl-7-morpholin-4-yl-pyrazolo[1,5-a]-pyrimidin-5-yl)-N′-(3-methyl-benzylidene)-hydrazine] | 55 | > 10000
11 | COc1cccc(/C=N/Nc2cc(N3CCOCC3)n3nc(-c4ccccc4)cc3n2)c1 [Compound 29, N-(3-methoxy-benzylidene)-N′-(7-morpholin-4-yl-2-phenyl-pyrazolo[1,5-a]pyrimidin-5-yl)-hydrazine] | 40 | > 10000
12 | COc1ccc(C)cc1/C=N/Nc1cc(N2CCOCC2)n2nc(-c3ccccc3)cc2n1 [Compound 40, N-(2-methoxy-5-methyl-benzylidene)-N′-(7-morpholin-4-yl-2-phenyl-pyrazolo[1,5-a]pyrimidin-5-yl)-hydrazine] | 64 | > 10000
13 | C(=N\Nc1cc(N2CCOCC2)n2nccc2n1)/c1c[nH]c2ccccc12 [Compound 10, N-(1H-indol-3-yl-methylidene)-N′-(7-morpholin-4-yl-pyrazolo[1,5-a]pyrimidin-5-yl)-hydrazine] | 165 | > 10000
14 | Cc1cccc(/C=N/Nc2cc(N3CCOCC3)n3nc(-c4ccccn4)cc3n2)c1 [Compound 20, N-(3-methyl-benzylidene)-N′-(7-morpholin-4-yl-2-pyridin-2-yl-pyrazolo[1,5-a]pyrimidin-5-yl)-hydrazine] | 8 | > 10000
15 | C(=N\Nc1cc(N2CCOCC2)n2nc(-c3cccnc3)cc2n1)/c1ccc2[nH]ccc2c1 [Compound 103, N-(1H-indol-5-yl-methylidene)-N-(7-morpholin-4-yl-2-pyridin-3-yl-pyrazolo[1,5-a]pyrimidin-5-yl)-hydrazine] | 160 | –
16 | C(=N\Nc1cc(N2CCOCC2)n2nc(-c3ccccc3)cc2n1)/c1cccs1 [Compound 61, N-(7-morpholin-4-yl-2-phenyl-pyrazolo[1,5-a]pyrimidin-5-yl)-N′-(thiophen-2-yl-methylidene)-hydrazine] | 370 | –
17 | C(=N\Nc1cc(N2CCOCC2)n2nc(-c3ccncc3)cc2n1)/c1ccc2c(c1)OCCO2 [Compound 113, N-(2,3-dihydro-benzo[1,4]dioxin-6-yl-methylidene)-N′-(7-morpholin-4-yl-2-pyridin-4-yl-pyrazolo[1,5-a]pyrimidin-5-yl)-hydrazine] | 98 | –

Further lines, results first:

Row | IC50 [1] [nM] | IC50 (TNF-α) [nM] | Compound
18 | 5 | > 10000 | CC(=O)N1CCN(c2ccc(-c3cc4nc(N/N=C/c5cccc(C)c5)cc(N5CCOCC5)n4n3)cc2)CC1 [Compound 22, N-[2-{4-(4-acetyl-piperazin-1-yl)-phenyl}-7-morpholin-4-yl-pyrazolo[1,5-a]pyrimidin-5-yl]-N′-(3-methyl-benzylidene)-hydrazine]
19 | 38 | > 10000 | Cc1cccc(/C=N/Nc2cc(N3CCOCC3)n3nc(-c4ccccc4C)cc3n2)c1 [Compound 14, N-(3-methyl-benzylidene)-N′-{2-(2-methyl-phenyl)-7-morpholin-4-yl-pyrazolo[1,5-a]pyrimidin-5-yl}-hydrazine]
20 | 35 | > 10000 | Cc1ccc(-c2cc3nc(N/N=C/c4cccc(C)c4)cc(N4CCOCC4)n3n2)cc1 [Compound 3, N-(3-methyl-benzylidene)-N′-{2-(4-methylphenyl)-7-morpholin-4-yl-pyrazolo[1,5-a]pyrimidin-5-yl}-hydrazine]
21 | 19 | > 10000 | Cc1cccc(/C=N/Nc2cc(N3CCOCC3)n3nc(-c4ccccc4)cc3n2)c1 [Compound 1, N-(3-methyl-benzylidene)-N′-(2-phenyl-7-morpholin-4-yl-pyrazolo[1,5-a]pyrimidin-5-yl)-hydrazine]
22 | 22 | > 10000 | Cc1cccc(/C=N/Nc2cc(N3CCOCC3)n3nc(-c4ccc(N5CCNCC5)cc4)cc3n2)c1 [Compound 21, N-(3-methyl-benzylidene)-N′-{7-morpholin-4-yl-2-(4-piperazin-1-yl-phenyl)-pyrazolo[1,5-a]pyrimidin-5-yl}-hydrazine]
23 | 14 | > 10000 | CCN(CC)c1ccc(-c2cc3nc(N/N=C/c4cccc(C)c4)cc(N4CCOCC4)n3n2)cc1 [Compound 23, N-{2-(4-diethyl-amino-phenyl)-7-morpholin-4-yl-pyrazolo-[1,5-a]pyrimidin-5-yl}-N′-(3-methyl-benzylidene)-hydrazine]
24 | 18 | > 10000 | CCCCC(=O)N1CCN(c2ccc(-c3cc4nc(N/N=C/c5cccc(C)c5)cc(N5CCOCC5)n4n3)cc2)CC1 [Compound 31, N-(3-methyl-benzylidene)-N′-{7-morpholin-4-yl-2-[4-(1-oxo-pentan-1-yl)piperazin-1-yl-phenyl]-pyrazolo[1,5-a]pyrimidin-5-yl}-hydrazine]
25 | 8.7 | > 10000 | Cc1cccc(/C=N/Nc2cc(N3CCOCC3)n3nc(-c4ccc(NN5CCOCC5)cc4)cc3n2)c1 [Compound 68]
26 | 8.2 | > 10000 | Cc1cccc(/C=N/Nc2cc(N3CCOCC3)n3nc(-c4ccc(N5CCSCC5)cc4)cc3n2)c1 [Compound 69, N-(3-methyl-benzylidene)-N′-{7-morpholin-4-yl-2-(4-thiomorpholin-4-yl-phenyl)-pyrazolo[1,5-a]pyrimidin-5-yl}-hydrazine]
27 | 17 | > 10000 | Cc1cccc(/C=N/Nc2cc(N3CCOCC3)n3nc(-c4cccc(Cl)c4)cc3n2)c1 [Compound 12, N-{2-(3-chloro-phenyl)-7-morpholin-4-yl-pyrazolo[1,5-a]-pyrimidin-5-yl}-N′-(3-methyl-benzylidene)-hydrazine]
28 | 6 | > 10000 | COCCNc1ccc(-c2cc3nc(N/N=C/c4cccc(C)c4)cc(N4CCOCC4)n3n2)cc1 [Compound 24, N-[2-{4-(2-methoxy-ethyl-amino)-phenyl}-7-morpholin-4-yl-pyrazolo[1,5-a]pyrimidin-5-yl]-N′-(3-methyl-benzylidene)-hydrazine]
29 | 11 | > 10000 | COc1ccc(-c2cc3nc(N/N=C/c4cccc(C)c4)cc(N4CCOCC4)n3n2)cc1 [Compound 15, N-{2-(4-methoxy-phenyl)-7-morpholin-4-yl-pyrazolo[1,5-a]pyrimidin-5-yl}-N′-(3-methyl-benzylidene)-hydrazine]
30 | 470 | – | Cc1cccc(/C=N/Nc2cc(N3CCOCC3)n3nc(C4CCNCC4)cc3n2)c1 [Compound 132, N-(3-methyl-benzylidene)-N′-(7-morpholin-4-yl-2-piperidin-4-yl-pyrazolo[1,5-a]pyrimidin-5-yl)-hydrazine]
